# Data reported in patent US5189055A, “Phenylpyrrolic compounds used as drugs, their preparation and application” (Centre National de la Recherche Scientifique (CNRS), priority 1988, dated 1993).
# Tests used:
# KB cells [1] = experiment: Cytotoxicity / cytostasis test on the KB line, % inhibition of proliferation (crystal violet); assay type: cell-based, human; conditions: for % inhibition of proliferation: KB cells, 72 hours
# Protocol: (§1) The cytotoxicity studies were carried out, on the one hand on the Vero line (normal monkey kidney cell), Table I, and on the other hand on the KB line (human carcinoma of the nasopharynx), Table II, according to the following method:
# (§2) The products were introduced at the time of culturing, which is maintained for 72 hours. The products are tested at 100, 80, 40, 20 and 10 μm [sic]. […] The percentage values for inhibition of cell proliferation were measured by a colorimetric method with crystal violet, relative to control cultures containing DMSO (≤1%).
# Vero cells = experiment: Cytotoxicity / cytostasis test on the Vero line, % inhibition of proliferation (crystal violet); assay type: cell-based, monkey; conditions: 72 hours
# Protocol: as §1, §2
# KB cells [2] = experiment: Cytotoxicity / cytostasis test on the KB line, % inhibition of proliferation (crystal violet); assay type: cell-based, human; conditions: 5 μm [sic], 72 hours
# tubulin = conditions: natural substances binding to tubulin receptor sites; cited from earlier work
Structure (SMILES),% inhibition of proliferation (KB cells [1]; 10 μm [sic]),% inhibition of proliferation (KB cells [1]; 20 μm [sic]),% inhibition of proliferation (KB cells [1]; 40 μm [sic]),% inhibition of proliferation (KB cells [1]; 80 μm [sic]),% inhibition of proliferation (KB cells [1]; 100 μm [sic]),% inhibition of proliferation (Vero cells; 10 μm [sic]),% inhibition of proliferation (Vero cells; 20 μm [sic]),% inhibition of proliferation (Vero cells; 40 μm [sic]),% inhibition of proliferation (Vero cells; 80 μm [sic]),% inhibition of proliferation (Vero cells; 100 μm [sic]),% inhibition of proliferation (KB cells [2]),"selectivity with respect to the KB line (KB cells [1]; at low concentration, KB versus Vero)",inhibition of tubulin polymerization (tubulin),spiralization of tubulin (tubulin)
"CCOC(=O)c1[nH]cc(C)c1-c1ccccc1 [(1), Ethyl 4-methyl-3-phenyl-2-pyrrolecarboxylate]",0%,0%,0%,35%,43%,0%,0%,20%,46%,63%,–,–,–,–
"COC(=O)c1[nH]cc(C)c1-c1cccc([N+](=O)[O-])c1 [(2), Methyl 4-methyl-3-(3'-nitrophenyl)-2-pyrrolecarboxylate]",0%,0%,10%,50%,72%,0%,3%,38%,75%,77%,–,–,–,–
Cc1c[nH]c2c(=O)[nH]c3ccccc3c12 [(4)],0%,72%,100%,60%,68%,0%,0%,45%,49-70%,69-84%,–,–,–,–
"CCOC(=O)c1[nH]cc(C)c1-c1ccccc1NC(=O)CNC(=O)OCc1ccccc1 [(6), Ethyl 3-[2'-(N-benzyloxycarbonylglycylamido)phenyl]-4-methyl-2-pyrrolecarboxylat]",0%,22%,31%,52%,68%,0%,0%,4%,48%,78%,–,–,–,–
"Cc1cn(C)c(C(=O)N(C(=O)NC2CCCCC2)C2CCCCC2)c1-c1ccccc1[N+](=O)[O-] [(10), 1,4-Dimethyl-3-(2'-nitrophenyl)pyrrole-2(N,N'-cyclohexylureidocarboxamide)]",0%,0%,0%,27%,45%,0%,0%,25%,100%,100%,–,–,–,–
"CCCCc1c(C)c(-c2ccccc2N(C)C(=O)OCc2ccccc2)c(CCC2OCCO2)n1C [(22), 5-Butyl-1,4-dimethyl-2-(1,4-dioxa-2-ethylcarbaldehyde)-3-[2'-(N-benzyloxycarbonyl-N-methylamino)phenyl]pyrrole]",0%,0%,0%,44%,59%,0%,0%,0%,54%,54%,–,–,–,–
"CCCCc1c(C)c(-c2ccccc2NC)c(CCC2OCCO2)n1C [(23), 5-Butyl-1,4-dimethyl-2-(1,4-dioxa-2-ethylcarbaldehyde)-3-[2'-(N-methylamino)phenyl]pyrrole]",48%,66%,81%,94%,100%,0%,0%,25%,69%,80%,4%,some degree of selectivity at low concentration with respect to the KB line,–,–
COc1cc([C@@H]2c3cc4c(cc3[C@H](O)[C@H]3COC(=O)[C@H]23)OCO4)cc(OC)c1OC [podophyllotoxin],–,–,–,–,–,–,–,–,–,–,–,–,inhibit its polymerization,–
CC[C@]1(O)C[C@@H]2CN(CCc3c([nH]c4ccccc34)[C@@](C(=O)OC)(c3cc4c(cc3OC)N(C)[C@H]3[C@@](O)(C(=O)OC)[C@H](OC(C)=O)[C@]5(CC)C=CCN6CC[C@]43[C@@H]65)C2)C1 [vinblastine],–,–,–,–,–,–,–,–,–,–,–,–,inhibit its polymerization,can cause its spiralization
CC[C@]1(O)C[C@H]2CN(CCc3c([nH]c4ccccc34)[C@@](C(=O)OC)(c3cc4c(cc3OC)N(C=O)[C@H]3[C@@](O)(C(=O)OC)[C@H](OC(C)=O)[C@]5(CC)C=CCN6CC[C@]43[C@@H]65)C2)C1 [vincristine],–,–,–,–,–,–,–,–,–,–,–,–,inhibit its polymerization,–
